Laboratory results as given in ChEMBL document CHEMBL1201862, “PubChem BioAssay data set” (2004).
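Dose response: 5 concentrations. Exposure: 48 h. Format: 96-well plates. Endpoint: linear interpolation; highest concentration if not reached. GI50 = concentration required for 50% inhibition of growth.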 The source made the active and inactive calls. No stated cut-off is given here; in the data, active = GI50 up to about 1.1 µM and inactive = higher.

What was measured:
Test in all cases: NCI-60 cell line screen, 48 h
[1] = tested on: PC-3
[2] = tested on: NCI-H522
[3] = tested on: MDA-MB-435
[4] = tested on: NCI-H23
[5] = tested on: LOX IMVI
[6] = tested on: IGROV-1
[7] = tested on: RPMI-8226
[8] = tested on: MCF7
[9] = tested on: SF-539
[10] = tested on: OVCAR-8
[11] = tested on: HL-60
[12] = tested on: NCI/ADR-RES
[13] = tested on: HOP-92
[14] = tested on: ACHN
[15] = tested on: SR
[16] = tested on: 786-0
[17] = tested on: TK-10
[18] = tested on: M14
[19] = tested on: HCT-116
[20] = tested on: CCRF-CEM
[21] = tested on: EKVX
[22] = tested on: OVCAR-5
[23] = tested on: SK-MEL-2
[24] = tested on: NCI-H460
[25] = tested on: SN12C
[26] = tested on: UACC-257
[27] = tested on: SF-268
[28] = tested on: MOLT-4
[29] = tested on: K562
[30] = tested on: UO-31
[31] = tested on: A498
[32] = tested on: A549
[33] = tested on: SK-OV-3
[34] = tested on: HT-29
[35] = tested on: Hs-578T
[36] = tested on: KM12
[37] = tested on: T47D
[38] = tested on: HOP-62
[39] = tested on: SK-MEL-28
[40] = tested on: OVCAR-3
[41] = tested on: CAKI-1
[42] = tested on: HCT-15
[43] = tested on: SK-MEL-5
[44] = tested on: MDA-N
[45] = tested on: SF-295
[46] = tested on: SNB-75
[47] = tested on: SNB-19
[48] = tested on: HCC 2998
[49] = tested on: OVCAR-4
[50] = tested on: UACC-62
[51] = tested on: Malme-3M
[52] = tested on: COLO 205
[53] = tested on: U-251
[54] = tested on: MDA-MB-231
[55] = tested on: DU-145
[56] = tested on: RXF 393
[57] = tested on: SW-620
[58] = tested on: BT-549
[59] = tested on: NCI-H226

C=C1CC2(C)CCC(OC(=O)C3(C)OC3C)C(C)(OC(C)=O)C2CC1=C(C)C (stereo not given)
GI50 [1]: > 100 µM (inactive) | GI50 [2]: > 100 µM (inactive) | GI50 [3]: > 100 µM (inactive) | GI50 [4]: > 100 µM (inactive) | GI50 [5]: > 100 µM (inactive) | GI50 [6]: > 100 µM (inactive) | GI50 [7]: > 100 µM (inactive) | GI50 [8]: > 100 µM (inactive) | GI50 [9]: > 100 µM (inactive) | GI50 [10]: > 100 µM (inactive) | GI50 [11]: 24.9 µM (inactive) | GI50 [12]: > 100 µM (inactive) | GI50 [13]: > 100 µM (inactive) | GI50 [14]: > 100 µM (inactive) | GI50 [15]: > 100 µM (inactive) | GI50 [16]: > 10 µM (inactive) | GI50 [17]: > 100 µM (inactive) | GI50 [18]: > 100 µM (inactive) | GI50 [19]: > 100 µM (inactive) | GI50 [20]: 96.6 µM (inactive) | GI50 [21]: > 100 µM (inactive) | GI50 [22]: > 100 µM (inactive) | GI50 [23]: > 100 µM (inactive) | GI50 [24]: > 100 µM (inactive) | GI50 [25]: > 100 µM (inactive) | GI50 [26]: > 100 µM (inactive) | GI50 [27]: > 100 µM (inactive) | GI50 [28]: > 100 µM (inactive) | GI50 [29]: > 100 µM (inactive) | GI50 [30]: > 100 µM (inactive) | GI50 [31]: > 100 µM (inactive) | GI50 [32]: > 100 µM (inactive) | GI50 [33]: > 100 µM (inactive) | GI50 [34]: > 100 µM (inactive) | GI50 [35]: > 100 µM (inactive) | GI50 [36]: > 100 µM (inactive) | GI50 [37]: > 100 µM (inactive) | GI50 [38]: > 100 µM (inactive) | GI50 [39]: > 100 µM (inactive) | GI50 [40]: > 100 µM (inactive) | GI50 [41]: > 10 µM (inactive) | GI50 [42]: > 100 µM | GI50 [43]: > 100 µM (inactive) | GI50 [44]: > 100 µM (inactive) | GI50 [45]: > 100 µM (inactive) | GI50 [46]: > 100 µM (inactive) | GI50 [47]: > 100 µM (inactive) | GI50 [48]: > 100 µM (inactive) | GI50 [49]: > 100 µM (inactive) | GI50 [50]: > 100 µM (inactive) | GI50 [51]: > 100 µM (inactive) | GI50 [52]: > 100 µM (inactive) | GI50 [53]: > 100 µM (inactive) | GI50 [54]: > 100 µM (inactive) | GI50 [55]: > 100 µM (inactive) | GI50 [56]: > 100 µM (inactive) | GI50 [57]: > 100 µM (inactive) | GI50 [58]: > 100 µM (inactive)

C[C@]12[C@@H]3CC[C@H]1[C@@H](OC(=O)Nc1cc([N+](=O)[O-])cc([N+](=O)[O-])c1)C(=O)N2CC3
GI50 [1]: > 100 µM (inactive) | GI50 [2]: > 100 µM (inactive) | GI50 [3]: > 100 µM (inactive) | GI50 [4]: > 100 µM (inactive) | GI50 [5]: > 100 µM (inactive) | GI50 [6]: > 100 µM (inactive) | GI50 [7]: > 100 µM (inactive) | GI50 [59]: > 100 µM (inactive) | GI50 [8]: > 100 µM (inactive) | GI50 [10]: > 100 µM (inactive) | GI50 [11]: 62.8 µM (inactive) | GI50 [12]: > 100 µM (inactive) | GI50 [13]: > 100 µM (inactive) | GI50 [14]: > 100 µM (inactive) | GI50 [15]: > 100 µM (inactive) | GI50 [16]: > 100 µM (inactive) | GI50 [17]: > 100 µM (inactive) | GI50 [18]: > 100 µM (inactive) | GI50 [19]: > 100 µM (inactive) | GI50 [20]: > 100 µM (inactive) | GI50 [21]: > 100 µM (inactive) | GI50 [22]: > 100 µM (inactive) | GI50 [23]: > 100 µM (inactive) | GI50 [24]: > 100 µM (inactive) | GI50 [25]: > 100 µM (inactive) | GI50 [26]: > 100 µM (inactive) | GI50 [27]: > 100 µM (inactive) | GI50 [28]: > 100 µM (inactive) | GI50 [29]: > 100 µM (inactive) | GI50 [30]: > 100 µM (inactive) | GI50 [31]: > 100 µM (inactive) | GI50 [32]: > 100 µM (inactive) | GI50 [33]: > 100 µM (inactive) | GI50 [34]: > 100 µM (inactive) | GI50 [35]: > 100 µM (inactive) | GI50 [36]: > 100 µM (inactive) | GI50 [37]: > 100 µM (inactive) | GI50 [38]: > 100 µM (inactive) | GI50 [39]: > 100 µM (inactive) | GI50 [41]: > 100 µM (inactive) | GI50 [42]: > 100 µM | GI50 [43]: > 100 µM (inactive) | GI50 [44]: > 100 µM (inactive) | GI50 [45]: > 100 µM (inactive) | GI50 [46]: 19.6 µM (inactive) | GI50 [47]: > 100 µM (inactive) | GI50 [48]: > 100 µM (inactive) | GI50 [49]: > 100 µM (inactive) | GI50 [50]: > 100 µM (inactive) | GI50 [51]: > 100 µM (inactive) | GI50 [52]: > 100 µM (inactive) | GI50 [53]: > 100 µM (inactive) | GI50 [54]: > 100 µM (inactive) | GI50 [55]: > 100 µM (inactive) | GI50 [56]: > 100 µM (inactive) | GI50 [57]: > 100 µM (inactive) | GI50 [58]: > 100 µM (inactive)
